Reference: US7691858B2, “Kinase inhibitors and methods of use thereof” (TargeGen, Inc., priority 2006, dated 2010)
“Also recorded” adds a separate entry of the source.

How the values were obtained:
KDR = biological target: T1, KDR (Homo sapiens, UniProt P35968); assay: Kinase panel screen; assay type: biochemical; conditions: Compound I and ATP 10 μM
T1 construct: purchased Upstate USA or Invitrogen (contract screening service)

JNK1a1 = JNK1a1 (Homo sapiens, UniProt P45983); assay: Kinase panel screen; assay type: biochemical; conditions: Compound I and ATP 10 μM
Aurora-A = biological target: T2, Aurora-A (Homo sapiens, UniProt O14965); assay: Kinase panel screen; assay type: biochemical; conditions: Compound I and ATP 10 μM
T2 construct: purchased Upstate USA or Invitrogen (contract screening service)

EphB2 = biological target: T3, EphB2 (Homo sapiens, UniProt P29323); assay: Kinase panel screen; assay type: biochemical; conditions: Compound I and ATP 10 μM
T3 construct: purchased Upstate USA or Invitrogen (commercial screening service)

BRK = biological target: T4, BRK (Homo sapiens, UniProt Q13882); assay: Kinase panel screen; assay type: biochemical; conditions: Compound I and ATP 10 μM
T4 construct: purchased Upstate USA or Invitrogen (commercial screening service)

NEK7 = biological target: T5, NEK7 (Homo sapiens, UniProt Q8TDX7); assay: Kinase panel screen; assay type: biochemical; conditions: Compound I and ATP 10 μM
T5 construct: purchased Upstate USA or Invitrogen (commercial screening service)

Arg = biological target: T6, Arg (Homo sapiens, UniProt P42684); assay: Kinase panel screen; assay type: biochemical; conditions: Compound I and ATP 10 μM
T6 construct: purchased Upstate USA or Invitrogen (contract screening service)

MAPKAP-K2 = biological target: T7, MAPKAP-K2 (Homo sapiens, UniProt P49137); assay: Kinase panel screen; assay type: biochemical; conditions: Compound I and ATP 10 μM
T7 construct: purchased Upstate USA or Invitrogen (commercial screening service)

JAK3 = biological target: T8, JAK3 (Homo sapiens, UniProt P52333); assay: Kinase panel screen; assay type: biochemical; conditions: Compound I and ATP 10 μM
T8 construct: purchased Upstate USA or Invitrogen (contract screening service)

Ret = biological target: T9, Ret (Homo sapiens, UniProt P07949); assay: Kinase panel screen; assay type: biochemical; conditions: Compound I and ATP 10 μM
T9 construct: purchased Upstate USA or Invitrogen (contract screening service)

IRAK4 = biological target: T10, IRAK4 (Homo sapiens, UniProt Q9NWZ3); assay: Kinase panel screen; assay type: biochemical; conditions: Compound I and ATP 10 μM
T10 construct: purchased Upstate USA or Invitrogen (contract screening service)

MSK2 = biological target: T11, MSK2 (Homo sapiens, UniProt O75676); assay: Kinase panel screen; assay type: biochemical; conditions: Compound I and ATP 10 μM
T11 construct: purchased Upstate USA or Invitrogen (contract screening service)

HIPK2 = biological target: T12, HIPK2 (Homo sapiens, UniProt Q9H2X6); assay: Kinase panel screen; assay type: biochemical; conditions: Compound I and ATP 10 μM
T12 construct: purchased Upstate USA or Invitrogen (commercial screening service)

Rse = biological target: T13, Rse (Homo sapiens, UniProt Q06418); assay: Kinase panel screen; assay type: biochemical; conditions: Compound I and ATP 10 μM
T13 construct: purchased Upstate USA or Invitrogen (commercial screening service)

Met = biological target: T14, Met (Homo sapiens, UniProt P08581); assay: Kinase panel screen; assay type: biochemical; conditions: Compound I and ATP 10 μM
T14 construct: purchased Upstate USA or Invitrogen (contract screening service)

ROCK-II = biological target: T15, ROCK-II (Homo sapiens, UniProt O75116); assay: Kinase panel screen; assay type: biochemical; conditions: Compound I and ATP 10 μM
T15 construct: purchased Upstate USA or Invitrogen (commercial screening service)

PKBy = biological target: T16, PKBy (Homo sapiens, UniProt Q9Y243); assay: Kinase panel screen; assay type: biochemical; conditions: read-out: Percent Control, PKBy
T16 construct: purchased Upstate USA or Invitrogen (contract screening service)

ERK phosphorylation = assay: VEGF-stimulated ERK phosphorylation in EC (Western blot); assay type: cell-based; conditions: 10 uM Compound I, EC with VEGF
Experimental: FIG. 3. Inhibition of cell proliferation and signaling. (a) EC were cultured in the presence of vehicle (DMSO) or PI3K inhibitors (all at 10 μM); cell proliferation was assessed either 24 (open bar), 48 (grey bar), or 72 h (black bar) later.
Western blots: Cell cultures were rinsed twice with PBS and then lysed using RIPA buffer (100 mM Tris, 150 mM NaCl, 2 mM CaCl2, 1% deoxycholic acid, 1% Triton X-100, 0.1% SDS, pH 7.5) containing PMSF (2 mM), NaF (500 mM), aprotinin (10 μg/ml), leupeptin (10 μg/ml) and vanadate (1 mM). Tissue samples were placed in ice-cold RIPA buffer and processed to lysates using a FastPrep homogenizer (QBiogene, Carlsbad, Calif.). Lysates were centrifuged at 15,000×g followed by assay for total protein using the bicinchoninic acid method (Pierce Biotechnology, Rockford, Ill.), then loaded at equal protein concentration onto gels for SDS-PAGE electrophoresis and Western blotting. For phosphorylated VE-cadherin detection blots were probed with primary antibody (Santa Cruz Biotechnology, Santa Cruz, Calif.) followed by a chemiluminescent detection system (Pierce Biotechnology). The same techniques were used to detect both phosphorylated and total ERK and Akt, except that primary antibodies were supplied by Cell Signaling Technology (Beverly, Mass.) and BD Biosciences (San Jose, Calif.), respectively.

PKC8 = biological target: T17, PKC8 (Homo sapiens, UniProt Q05655); assay: Kinase panel screen; assay type: biochemical; conditions: Compound I and ATP 10 μM
T17 construct: purchased Upstate USA or Invitrogen (commercial screening service)

INK3 = INK3 (Rattus norvegicus, UniProt P49187); assay: Kinase panel screen; assay type: biochemical; conditions: Compound I and ATP 10 μM
Lck = biological target: T18, Lck (Homo sapiens, UniProt P06239); assay: Kinase panel screen; assay type: biochemical; conditions: Compound I and ATP 10 μM
T18 construct: purchased Upstate USA or Invitrogen (contract screening service)

EphA4 = biological target: T19, EphA4 (Homo sapiens, UniProt P54764); assay: Kinase panel screen; assay type: biochemical; conditions: Compound I and ATP 10 μM
T19 construct: purchased Upstate USA or Invitrogen (commercial screening service)

PKBa = biological target: T20, PKBa (Homo sapiens, UniProt P31749); assay: Kinase panel screen; assay type: biochemical; conditions: read-out: Percent Control, PKBa
T20 construct: purchased Upstate USA or Invitrogen (contract screening service)

SGK = biological target: T21, SGK (Homo sapiens, UniProt O00141, S422D); assay: Kinase panel screen; assay type: biochemical; conditions: Compound I and ATP 10 μM
T21 construct: purchased Upstate USA or Invitrogen (commercial screening service)

[1] = test system: PAF-induced inflammatory edema; assay: Rat hindpaw inflammation model, PAF; assay type: in vivo, Sprague Dawley rats
Experimental: FIG. 4. Inhibition of edema and inflammation. (a, b) Rats were injected i.v. with Evans blue dye and then intradermally with saline, VEGF or histamine. […] (c-f) Rat hindpaws were injected with either PAF (c & d) or dextran (e & f), and three hours later processed as H&E-stained paraffin sections. […] Images were taken of paws representing the mean group value for volume as presented in Results (original magnification 200×).
The Miles assay models a primarily endothelial-based response that develops rapidly (within minutes). As a comparator, we next employed a rodent hindpaw model where more complex inflammatory reactions develop over several hours. Agonists included PAF, a GPCR ligand that activates both EC and leukocytes, and dextran, a phagocytic stimulus for mast cell and leukocyte activation. […] Paw volume (a more quantitative measure of edema and inflammation) was reduced by 62% and 78% in response to PAF or dextran, respectively (n=8, P<0.001). Finally, to correlate these in vivo responses with the molecular target of interest, we monitored PI3K pathway signaling through Western blot analyses of Akt phosphorylation (a PI3K-mediated event).
In order to determine the influence of compounds on the development of inflammation, Sprague Dawley rats were first injected intravenously with either vehicle or test compound at 5 mg/kg, and then 30 min later either PBS (as a control), dextran or platelet activating factor (PAF) was injected into the plantar surface of the hindlimbs, dextran and PAF being known to induce localized inflammatory responses marked by edema. Three hours later, paw dimensions were measured using a caliper and paw volumes calculated; data are shown as the increase in paw volume (mm^3) as compared to controls (paws injected with PBS).

Sequence of INK3 (P49187 whole entry): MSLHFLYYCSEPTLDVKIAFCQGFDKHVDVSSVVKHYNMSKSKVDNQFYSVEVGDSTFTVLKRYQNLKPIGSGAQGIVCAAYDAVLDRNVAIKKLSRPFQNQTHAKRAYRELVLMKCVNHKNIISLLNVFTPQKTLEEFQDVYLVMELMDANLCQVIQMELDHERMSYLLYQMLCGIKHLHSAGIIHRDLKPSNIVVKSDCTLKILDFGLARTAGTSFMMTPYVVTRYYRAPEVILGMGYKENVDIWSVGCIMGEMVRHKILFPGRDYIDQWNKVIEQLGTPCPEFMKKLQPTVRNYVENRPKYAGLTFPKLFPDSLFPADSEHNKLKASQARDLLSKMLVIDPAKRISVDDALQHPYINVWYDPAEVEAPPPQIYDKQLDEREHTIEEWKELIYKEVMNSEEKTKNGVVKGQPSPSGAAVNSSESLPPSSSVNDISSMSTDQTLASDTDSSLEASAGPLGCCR
T11 sequence (O75676 whole entry): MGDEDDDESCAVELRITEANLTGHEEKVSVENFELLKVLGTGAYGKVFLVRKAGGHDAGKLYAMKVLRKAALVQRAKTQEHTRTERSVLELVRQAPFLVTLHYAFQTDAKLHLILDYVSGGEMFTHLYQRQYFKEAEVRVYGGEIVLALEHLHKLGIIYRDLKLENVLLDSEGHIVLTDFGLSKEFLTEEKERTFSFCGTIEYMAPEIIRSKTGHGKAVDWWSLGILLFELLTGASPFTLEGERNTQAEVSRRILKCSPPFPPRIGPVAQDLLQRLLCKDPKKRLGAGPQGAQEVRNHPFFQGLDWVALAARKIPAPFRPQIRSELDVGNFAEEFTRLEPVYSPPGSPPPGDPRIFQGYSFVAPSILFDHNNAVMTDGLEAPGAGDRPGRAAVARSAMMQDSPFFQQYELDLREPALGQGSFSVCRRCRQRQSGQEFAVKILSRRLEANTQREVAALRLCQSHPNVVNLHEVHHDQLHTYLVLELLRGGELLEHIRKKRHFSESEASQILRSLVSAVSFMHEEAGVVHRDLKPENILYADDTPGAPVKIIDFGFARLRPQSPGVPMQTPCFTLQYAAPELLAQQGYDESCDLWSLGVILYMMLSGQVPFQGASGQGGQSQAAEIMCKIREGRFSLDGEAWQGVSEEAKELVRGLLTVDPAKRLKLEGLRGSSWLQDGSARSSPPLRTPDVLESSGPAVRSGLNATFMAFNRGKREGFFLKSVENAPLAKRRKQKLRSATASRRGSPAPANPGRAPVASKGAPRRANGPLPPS
T16 sequence (Q9Y243 whole entry): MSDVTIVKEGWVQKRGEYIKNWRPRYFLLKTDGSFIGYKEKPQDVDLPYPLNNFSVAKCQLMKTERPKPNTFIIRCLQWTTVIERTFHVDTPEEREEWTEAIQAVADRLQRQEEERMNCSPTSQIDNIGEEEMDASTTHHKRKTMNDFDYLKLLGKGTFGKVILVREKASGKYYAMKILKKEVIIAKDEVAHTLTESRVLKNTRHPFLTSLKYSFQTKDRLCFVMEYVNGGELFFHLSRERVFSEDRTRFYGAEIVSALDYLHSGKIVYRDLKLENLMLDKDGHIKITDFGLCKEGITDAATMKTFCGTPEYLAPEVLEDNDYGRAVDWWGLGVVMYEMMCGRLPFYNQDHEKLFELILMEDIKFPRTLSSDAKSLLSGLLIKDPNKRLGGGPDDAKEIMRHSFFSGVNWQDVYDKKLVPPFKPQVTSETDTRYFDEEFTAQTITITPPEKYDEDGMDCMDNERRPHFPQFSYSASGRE
T13 sequence (Q06418 41-890): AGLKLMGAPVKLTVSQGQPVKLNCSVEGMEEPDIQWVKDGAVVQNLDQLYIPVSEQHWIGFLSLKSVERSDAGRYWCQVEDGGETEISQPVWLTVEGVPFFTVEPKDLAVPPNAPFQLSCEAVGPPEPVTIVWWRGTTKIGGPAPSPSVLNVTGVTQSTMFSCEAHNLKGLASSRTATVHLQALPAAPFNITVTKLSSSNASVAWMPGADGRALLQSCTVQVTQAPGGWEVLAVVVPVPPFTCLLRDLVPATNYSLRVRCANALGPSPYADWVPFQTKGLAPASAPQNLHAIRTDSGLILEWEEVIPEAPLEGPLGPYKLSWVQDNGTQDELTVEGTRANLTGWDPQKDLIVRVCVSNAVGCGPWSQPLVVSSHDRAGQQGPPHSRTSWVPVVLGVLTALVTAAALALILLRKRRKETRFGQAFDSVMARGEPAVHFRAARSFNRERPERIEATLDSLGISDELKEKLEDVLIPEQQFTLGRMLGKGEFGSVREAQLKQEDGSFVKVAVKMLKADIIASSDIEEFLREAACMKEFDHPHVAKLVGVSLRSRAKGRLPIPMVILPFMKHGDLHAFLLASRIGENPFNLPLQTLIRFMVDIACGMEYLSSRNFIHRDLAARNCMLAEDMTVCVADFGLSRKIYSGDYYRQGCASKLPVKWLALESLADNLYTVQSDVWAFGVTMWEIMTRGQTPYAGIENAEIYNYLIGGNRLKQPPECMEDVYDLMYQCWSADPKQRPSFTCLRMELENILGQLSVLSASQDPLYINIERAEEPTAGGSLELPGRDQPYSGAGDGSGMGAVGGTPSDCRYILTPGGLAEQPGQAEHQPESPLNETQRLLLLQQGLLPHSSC
T20 sequence (P31749 whole entry): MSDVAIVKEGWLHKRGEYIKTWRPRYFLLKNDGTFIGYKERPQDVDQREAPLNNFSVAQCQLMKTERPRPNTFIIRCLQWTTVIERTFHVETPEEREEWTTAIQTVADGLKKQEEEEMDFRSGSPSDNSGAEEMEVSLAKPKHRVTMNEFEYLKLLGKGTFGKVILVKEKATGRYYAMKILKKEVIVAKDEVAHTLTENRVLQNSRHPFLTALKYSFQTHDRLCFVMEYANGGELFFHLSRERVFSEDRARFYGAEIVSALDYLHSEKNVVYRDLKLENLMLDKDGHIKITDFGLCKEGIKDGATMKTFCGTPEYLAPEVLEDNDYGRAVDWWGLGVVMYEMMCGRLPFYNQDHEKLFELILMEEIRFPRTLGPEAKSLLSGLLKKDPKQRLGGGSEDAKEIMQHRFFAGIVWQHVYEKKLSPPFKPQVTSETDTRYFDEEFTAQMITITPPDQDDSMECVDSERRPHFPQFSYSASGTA
T12 sequence (Q9H2X6 whole entry): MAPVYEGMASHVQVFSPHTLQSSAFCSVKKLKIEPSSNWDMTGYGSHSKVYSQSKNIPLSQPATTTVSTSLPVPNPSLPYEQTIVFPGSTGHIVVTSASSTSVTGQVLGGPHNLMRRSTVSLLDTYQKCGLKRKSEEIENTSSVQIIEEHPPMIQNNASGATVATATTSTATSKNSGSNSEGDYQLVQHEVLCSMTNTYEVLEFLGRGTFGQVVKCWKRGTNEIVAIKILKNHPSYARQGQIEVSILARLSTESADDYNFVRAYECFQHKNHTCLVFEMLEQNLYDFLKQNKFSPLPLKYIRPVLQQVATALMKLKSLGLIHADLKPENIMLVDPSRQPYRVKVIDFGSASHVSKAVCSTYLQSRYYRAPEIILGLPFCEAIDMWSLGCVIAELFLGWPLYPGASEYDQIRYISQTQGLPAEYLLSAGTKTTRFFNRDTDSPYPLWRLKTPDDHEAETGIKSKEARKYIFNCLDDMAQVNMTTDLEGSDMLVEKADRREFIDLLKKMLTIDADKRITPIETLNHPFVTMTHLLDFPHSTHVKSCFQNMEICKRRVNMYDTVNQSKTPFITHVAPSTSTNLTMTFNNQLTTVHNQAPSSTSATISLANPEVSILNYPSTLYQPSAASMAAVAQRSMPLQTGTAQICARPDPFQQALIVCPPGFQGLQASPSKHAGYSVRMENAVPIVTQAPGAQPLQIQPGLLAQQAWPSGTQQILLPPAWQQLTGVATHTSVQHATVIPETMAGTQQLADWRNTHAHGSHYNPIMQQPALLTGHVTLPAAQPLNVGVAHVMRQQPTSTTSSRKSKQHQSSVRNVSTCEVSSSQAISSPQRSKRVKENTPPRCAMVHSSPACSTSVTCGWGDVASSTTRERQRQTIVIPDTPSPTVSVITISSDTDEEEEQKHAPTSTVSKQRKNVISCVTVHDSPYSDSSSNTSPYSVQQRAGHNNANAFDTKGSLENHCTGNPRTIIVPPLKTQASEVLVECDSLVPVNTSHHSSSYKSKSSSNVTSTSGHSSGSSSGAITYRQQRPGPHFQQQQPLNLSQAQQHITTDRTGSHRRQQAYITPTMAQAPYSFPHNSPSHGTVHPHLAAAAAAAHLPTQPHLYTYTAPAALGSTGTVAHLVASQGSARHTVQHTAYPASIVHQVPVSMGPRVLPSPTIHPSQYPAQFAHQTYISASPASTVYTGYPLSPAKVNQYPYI
T7 sequence (P49137 whole entry): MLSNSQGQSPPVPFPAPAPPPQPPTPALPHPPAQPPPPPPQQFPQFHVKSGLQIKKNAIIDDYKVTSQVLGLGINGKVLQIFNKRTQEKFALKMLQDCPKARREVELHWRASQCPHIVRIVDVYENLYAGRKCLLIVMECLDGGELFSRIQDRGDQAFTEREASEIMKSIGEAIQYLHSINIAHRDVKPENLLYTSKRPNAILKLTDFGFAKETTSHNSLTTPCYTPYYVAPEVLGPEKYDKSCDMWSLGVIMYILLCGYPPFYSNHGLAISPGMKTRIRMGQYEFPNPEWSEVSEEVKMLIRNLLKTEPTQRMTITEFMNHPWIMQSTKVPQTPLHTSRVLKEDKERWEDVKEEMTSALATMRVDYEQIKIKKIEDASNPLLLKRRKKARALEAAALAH
Sequence of JNK1a1 (P45983 1-384 isoform P45983-2): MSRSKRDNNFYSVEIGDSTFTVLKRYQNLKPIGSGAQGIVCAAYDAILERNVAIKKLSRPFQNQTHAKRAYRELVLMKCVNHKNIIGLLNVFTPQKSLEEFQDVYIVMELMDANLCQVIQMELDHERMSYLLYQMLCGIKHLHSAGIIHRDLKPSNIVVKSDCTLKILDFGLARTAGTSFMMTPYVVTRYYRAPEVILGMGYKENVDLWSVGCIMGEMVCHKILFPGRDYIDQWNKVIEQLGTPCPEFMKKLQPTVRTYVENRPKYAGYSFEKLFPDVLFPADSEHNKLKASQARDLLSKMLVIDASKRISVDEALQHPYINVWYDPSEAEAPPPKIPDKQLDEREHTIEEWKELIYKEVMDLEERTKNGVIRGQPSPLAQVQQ

SMILES: Nc1nc(N)c2nc(-c3cccc(O)c3)c(-c3cccc(O)c3)nc2n1 [Compound I, 6,7-bis-(3-hydroxyphenyl)-pteridine-2,4-diamine]
- Percent Control, KDR (KDR): 62%
- Percent Control, JNK1a1 (JNK1a1): 80%
- Percent Control, Aurora-A (Aurora-A): 71%
- Percent Control, EphB2 (EphB2): 56%
- Percent Control, BRK (BRK): 79%
- Percent Control, NEK7 (NEK7): 99%
- Percent Control, Arg (Arg): 43%
- Percent Control, MAPKAP-K2 (MAPKAP-K2): 107%
- Percent Control, JAK3 (JAK3): 99%
- Percent Control, Ret (Ret): 57%
- Percent Control, IRAK4 (IRAK4): 89%
- Percent Control, MSK2 (MSK2): 100%
- Percent Control, HIPK2 (HIPK2): 87%
- Percent Control, Rse (Rse): 93%
- Percent Control, Met (Met): 41%
- Percent Control, ROCK-II (ROCK-II): 81%
- remaining activity at 10 µM (PKBy): 98%
- VEGF-stimulated ERK phosphorylation (ERK phosphorylation): no influence
- Percent Control, PKC8 (PKC8): 89%
- Percent Control, INK3(r) (INK3): 64%
- Percent Control, Lck (Lck): 52%
- Percent Control, EphA4 (EphA4): 119%
- remaining activity at 10 µM (PKBa): 62%
- Percent Control, SGK (SGK): 95%
- Increase in Paw Volume vs. Controls ([1]; 5 mg/kg iv 30 min before, 3 hours, mean±SEM N=6, vehicle 71 ± 9): 27 ± 4 mm^3
- edema and leukocyte infiltration (histology) ([1]; 5 mg/kg pretreatment, three hours): strongly antagonized; also recorded: blocked
- reduction of paw volume ([1]; n=8): 62%
